Columns and labels:
Format in all cases: functional, cell-based
LNCaP = assay: Cytotoxicity against human LNCAP cells after 48 hrs by MTT assay
MCF7 = assay: Cytotoxicity against human MCF7 cells after 48 hrs by MTT assay; details: MCF7, 48 h
[1] = Cytotoxicity against human MDA231 cells after 48 hrs by MTT assay; details: MDA-MB-231, 48 h
PC-3 = assay: Cytotoxicity against human PC3 cells after 48 hrs by MTT assay; details: PC-3, 48 h
DU-145 = assay: Cytotoxicity against human DU145 cells after 48 hrs by MTT assay; details: DU-145, 48 h
MIA PaCa-2 = assay: Cytotoxicity against human MIAPaCa2 cells after 48 hrs by MTT assay; details: MIA PaCa-2, 48 h

Row | Compound | IC50 (LNCaP) [µM] | IC50 (MCF7) [µM] | IC50 [1] [µM] | IC50 (PC-3) [µM] | IC50 (DU-145) [µM] | IC50 (MIA PaCa-2) [µM]
1 | Fc1ccc(-c2nc(-c3c[nH]c4ccccc34)co2)cc1 | 59.8 | 28 | 90.4 | 42.8 | 31.8 | 40.6
2 | COc1ccc(-c2nc(-c3c[nH]c4ccccc34)co2)cc1 | 507 | 43.8 | 108 | 133 | 164 | 35
3 | c1ccc(-c2nc(-c3c[nH]c4ccccc34)co2)cc1 | 461 | 131 | 171 | 170 | 167 | 113
4 | COc1cc(-c2nc(-c3c[nH]c4ccccc34)co2)ccc1O | 445 | 1000 | 1000 | 303 | 175 | 1000
5 | Cc1nc(-c2c[nH]c3ccccc23)co1 | 316 | 802 | 1000 | 337 | 244 | 688
6 | COc1cc(-c2nc(-c3cn(C)c4ccccc34)co2)ccc1OCc1ccccc1 | 368 | 198 | 1000 | 450 | 382 | 318
7 | C(=C\c1nc(-c2c[nH]c3ccccc23)co1)/c1ccccc1 | 183 | 355 | 1000 | 221 | 135 | 872
8 | Clc1ccc(Cn2cc(-c3coc(-c4ccc(Cl)cc4)n3)c3ccccc32)cc1 | 182 | 14.1 | 216 | 350 | 80.5 | 26
9 | Oc1ccc(-c2nc(-c3c[nH]c4ccccc34)co2)cc1 | 449 | 580 | 1000 | 382 | 247 | 1000
10 | Cn1cc(-c2coc(-c3ccc(Cl)cc3)n2)c2ccccc21 | 378 | 637 | 790 | 302 | 412 | 89.2
11 | c1ccc2c(-c3coc(-c4ccncc4)n3)c[nH]c2c1 | 238 | 54.9 | 105 | 298 | 178 | 38.4
12 | c1ccc(Cc2nc(-c3c[nH]c4ccccc34)co2)cc1 | 377 | 1000 | 1000 | 368 | 349 | 1000
13 | c1ccc2c(-c3coc(C4CCNCC4)n3)c[nH]c2c1 | 476 | 294 | 528 | 407 | 381 | 230
14 | COc1ccc(-c2nc(-c3c[nH]c4ccccc34)co2)cc1OC | 278 | 759 | 1000 | 359 | 300 | 1000
15 | Cn1cc(-c2coc(C3CCNCC3)n2)c2ccccc21 | 400 | 1000 | 1000 | 578 | 376 | 759
16 | C=Cc1nc(-c2c[nH]c3ccccc23)co1 | 530 | 1000 | 1000 | 426 | 59.8 | 37.6
17 | c1ccc2c(-c3cocn3)c[nH]c2c1 | 382 | 1000 | 1000 | 321 | 93.5 | 1000
18 | Clc1ccc(-c2nc(-c3c[nH]c4ccccc34)co2)cc1 | 505 | 410 | 608 | 151 | 206 | 326

— ChEMBL document CHEMBL1154877, “An expeditious synthesis and anticancer activity of novel 4-(3'-indolyl)oxazoles” (Eur J Med Chem, 2010)
